Measurements as given in patent US12551536B2, “Semaglutide in medical therapy” (Novo Nordisk A/S, priority 2017, dated 2026).

Experiments:
Assay type in all cases: in vivo, human
[1] = 26-week clinical trial in adult patients with T2D: body weight change; settings: on-treatment, estimated data
Protocol: (§1) A 26-week, randomized, double-blind clinical trial was carried out with adult patients with T2D, HbA1c 7.0-10.0% (53-86 mmol/mol), and body mass index 24.0-40.0 kg/m^2 who were treated with diet and exercise±metformin. […] The primary endpoint was change in HbA1c from baseline to week 26. Key exclusion criteria were a history of chronic or idiopathic acute pancreatitis and moderate-to-severe renal impairment (estimated glomerular filtration rate <60 mL/min/1.73 m^2).
Trial drug administration: Following a 2-week screening period, patients received trial medication for 26 weeks, followed by a 7-week follow-up period. […] The trial was double blinded within (but not between) each dose level of semaglutide, liraglutide and placebo, as treatment was volume matched.

HbA1c = assay: 26-week clinical trial in adult patients with T2D: change in HbA1c; settings: baseline to week 26
Protocol: as §1
Trial drug administration: Following a 2-week screening period, patients received trial medication for 26 weeks, followed by a 7-week follow-up period.

[2] = 52-week clinical trial in obese subjects without diabetes mellitus: gastrointestinal adverse events; settings: for Gastrointestinal adverse events, Observed data, % (percentage of subjects with at least one event) / Nausea, % (percentage of subjects experiencing at least one event) / Nausea, E (number of events) / Nausea, Ne (number of subjects experiencing at least one event) / Gastrointestinal adverse events, Observed data, Ne (number of subjects experiencing at least one event): on-treatment; for Nausea, % (percentage of subjects experiencing at least one event) / Nausea, E (number of events) / Nausea, Ne (number of subjects experiencing at least one event): observed data
Protocol: (§2) This trial was designed as a 52-week, randomised, double-blind, placebo-controlled, sixteen-armed, parallel group, multi-centre, multinational trial comparing once-daily subcutaneous administration of semaglutide in five different doses (ranging from 0.05 mg/day to 0.4 mg/day) with placebo in obese subjects without diabetes mellitus. […] The trial was double-blinded between active and placebo treatment. To ensure a sufficiently large sample of men, no more than 70% of the trial population was allowed to be women and the randomisation was stratified according to sex. Subjects were randomised in a balanced manner (6:1 active:placebo).
(§3) The primary endpoint was relative change from baseline in body weight (%) at 52 weeks. Key secondary endpoints included proportion of subjects with weight loss of ≥5% or ≥10% of baseline body weight at 52 weeks as well as change in body weight from baseline to 52 weeks. Supportive secondary safety endpoints also included gastrointestinal (GI) adverse events (i.e. nausea, vomiting, diarrhoea and constipation). During each site visit the individual subject was asked via open questions if they had experienced any medical problems since the last visit. All medical problems either observed by the site staff or the subject was reported as an adverse event and evaluated for severity and causality by the investigator. For this trial the subjects had site visits every 2 weeks for the first 20 weeks of the trial and afterwards site visits was performed every 4 weeks.
(§4) Subjects in all treatment arms including placebo received nutritional counselling and a calorie-reduced diet by a dietician or equivalent qualified delegate as well as physical activity counselling by a qualified person on a monthly basis beginning at the randomisation visit. The trial population consisted of a total of 957 subjects were randomised. A total of 777 subjects (81.2%) completed 52 weeks of treatment; 180 (18.8%) discontinued treatment prematurely with no obvious dose-dependent trend. Key inclusion criteria for this trial were: Male or female, age ≥18 years at the time of signing inform consent; body mass index (BMI)≥30.0 kg/m2 at the screening visit; and at least one unsuccessful weight loss attempt per investigator judgement. Key exclusion criteria for this trial were: A HbA1c≥6.5% at screening or diagnosed with type 1 or type 2 diabetes mellitus; Treatment with glucose lowering agent(s) within 90 days before screening; Screening calcitonin ≥50 ng/L (pg/mL); Personal or family history of medullary thyroid carcinoma or multiple endocrine neoplasia syndrome type 2; History of pancreatitis (acute or chronic); Obesity induced by endocrine disorders (e.g. Cushing Syndrome); Treatment with any medication within 90 days before screening that based on investigator's judgement may cause significant weight change; Previous surgical treatment for obesity (liposuction and/or abdominoplasty performed >1 year before screening is allowed); History of major depressive disorder within 2 years before randomisation; Any lifetime history of a suicidal attempt; and Female who is pregnant, breast-feeding or intends to become pregnant or is of childbearing potential and not using an adequate contraceptive method (adequate contraceptive measures as required by local regulation or practice).

[3] = 52-week clinical trial of once-daily semaglutide in obese subjects without diabetes mellitus: change in body weight; settings: for Change in body weight (%) from baseline to week 52, Change (%) Estimate / Change in body weight, Treatment difference (%-points) vs. Lira 3.0 mg / Change in body weight, Treatment difference (%-points) vs. Placebo Pool: ANCOVA, J2R-MI; for Change in body weight (%) from baseline at week 52, Model prediction (Estimate) %: Emax dose-response modelling; for Change in body weight (%) from baseline to week 52, Subjects in-trial, Mean / Change in body weight (%) from baseline to week 52, Subjects on-treatment, Mean: observed data
Protocol: as §2, §3, §4
Statistical analyses of effect endpoints: The primary analysis was based on a ‘jump-to-reference’ multiple imputation approach (J2R-MI). Week 52 data from subjects who discontinued trial product and returned for the visit at week 52 were included in the analysis. First, an imputation model using observed week 52 body weight (kg) measurements from the placebo arm only were estimated. Second, multiple copies (1000) of the full analysis set were generated by imputing missing values in all treatment arms from the imputation model. The primary endpoint was calculated in each complete data set and analysed using an analysis of covariance (ANCOVA) model. […]

[4] = Sema 0.05 mg once daily s.c., N 103
[5] = Sema 0.1 mg once daily s.c., N 102
[6] = Sema 0.2 mg once daily s.c., N 103
[7] = Sema 0.3 mg once daily s.c., N 103
[8] = Sema 0.4 mg once daily s.c., N 102
[9] = Sema 0.05 mg once daily s.c., week 52
[10] = Sema 0.1 mg once daily s.c., week 52
[11] = Sema 0.2 mg once daily s.c., week 52
[12] = Sema 0.3 mg once daily s.c., week 52
[13] = Sema 0.4 mg once daily s.c., week 52

N^6.26-{18-[N-(17-carboxyheptadecanoyl)-L-γ-glutamyl]-10-oxo-3,6,12,15-tetraoxa-9,18-diazaoctadecanoyl}-[8-(2-amino-2-propanoic acid),34-L-arginine]human glucagon-like peptide 1(7-37) [Sema]
Body weight change, mean (kg), baseline to week 26 ([1]; Sema 0.05 mg once daily s.c.): -2.8 kg | Body weight change, mean (kg), baseline to week 26 ([1]; Sema 0.1 mg once daily s.c.): -4.3 kg | Body weight change, mean (kg), baseline to week 26 ([1]; Sema 0.2 mg once daily s.c.): -6.7 kg | Body weight change, mean (kg), baseline to week 26 ([1]; Sema 0.3 mg once daily s.c.): -8.2 kg | Mean Change in HbA1c % (SD) (HbA1c; Sema 0.05 mg once daily s.c.): −0.97 (0.85) % | Mean Change in HbA1c % (SD) (HbA1c; Sema 0.1 mg once daily s.c.): −1.30 (1.03) % | Mean Change in HbA1c % (SD) (HbA1c; Sema 0.2 mg once daily s.c.): −1.65 (0.79) % | Mean Change in HbA1c % (SD) (HbA1c; Sema 0.3 mg once daily s.c.): −1.96 (0.95) % | Corresponding Sema dose (dosage of semaglutide providing the same level of gastrointestinal adverse events as 3.0 mg liraglutide) ([2]; Lira 3.0 mg, Emax model, Estimate [95% CI]): 0.28 mg | Gastrointestinal adverse events, Observed data, % (percentage of subjects with at least one event) ([2]; Sema 0.05 mg once daily s.c.): 62.1% | Nausea, % (percentage of subjects experiencing at least one event) ([2]; Sema 0.05 mg once daily s.c.): 31.1% | Nausea, E (number of events) ([2]; Sema 0.05 mg once daily s.c.): 41 | Nausea, Ne (number of subjects experiencing at least one event) [2, 4]: 32 | Gastrointestinal adverse events, Observed data, Ne (number of subjects experiencing at least one event) [2, 4]: 64 | Gastrointestinal adverse events, Observed data, % (percentage of subjects with at least one event) ([2]; Sema 0.1 mg once daily s.c.): 70.6% | Nausea, % (percentage of subjects experiencing at least one event) ([2]; Sema 0.1 mg once daily s.c.): 41.2% | Nausea, E (number of events) ([2]; Sema 0.1 mg once daily s.c.): 80 | Nausea, Ne (number of subjects experiencing at least one event) [2, 5]: 42 | Gastrointestinal adverse events, Observed data, Ne (number of subjects experiencing at least one event) [2, 5]: 72 | Gastrointestinal adverse events, Observed data, % (percentage of subjects with at least one event) ([2]; Sema 0.2 mg once daily s.c.): 69.9% | Nausea, % (percentage of subjects experiencing at least one event) ([2]; Sema 0.2 mg once daily s.c.): 43.7% | Nausea, E (number of events) ([2]; Sema 0.2 mg once daily s.c.): 74 | Nausea, Ne (number of subjects experiencing at least one event) [2, 6]: 45 | Gastrointestinal adverse events, Observed data, Ne (number of subjects experiencing at least one event) [2, 6]: 72 | Gastrointestinal adverse events, Observed data, % (percentage of subjects with at least one event) ([2]; Sema 0.3 mg once daily s.c.): 69.9% | Nausea, % (percentage of subjects experiencing at least one event) ([2]; Sema 0.3 mg once daily s.c.): 41.7% | Nausea, E (number of events) ([2]; Sema 0.3 mg once daily s.c.): 69 | Nausea, Ne (number of subjects experiencing at least one event) [2, 7]: 43 | Gastrointestinal adverse events, Observed data, Ne (number of subjects experiencing at least one event) [2, 7]: 72 | Gastrointestinal adverse events, Observed data, % (percentage of subjects with at least one event) ([2]; Sema 0.4 mg once daily s.c.): 82.4% | Nausea, % (percentage of subjects experiencing at least one event) ([2]; Sema 0.4 mg once daily s.c.): 48.0% | Nausea, E (number of events) ([2]; Sema 0.4 mg once daily s.c.): 94 | Nausea, Ne (number of subjects experiencing at least one event) [2, 8]: 49 | Gastrointestinal adverse events, Observed data, Ne (number of subjects experiencing at least one event) [2, 8]: 84 | Corresponding Sema dose (dosage of semaglutide providing the same body weight reduction as 3.0 mg liraglutide) ([3]; Lira 3.0 mg, Emax model, Estimate [95% CI], week 52): 0.08 mg | Change in body weight (%) from baseline to week 52, Change (%) Estimate ([3]; Sema 0.05 mg once daily s.c.): −5.99% | Change in body weight, Treatment difference (%-points) vs. Lira 3.0 mg [3, 9]: 1.77 %-points | Change in body weight, Treatment difference (%-points) vs. Placebo Pool [3, 9]: −3.70 %-points | Change in body weight (%) from baseline at week 52, Model prediction (Estimate) % ([3]; Sema 0.05 mg): −6.19% | Change in body weight (%) from baseline to week 52, Change (%) Estimate ([3]; Sema 0.1 mg once daily s.c.): −8.62% | Change in body weight (%) from baseline to week 52, Subjects in-trial, Mean ([3]; Sema 0.1 mg once daily s.c.): −9.11% | Change in body weight (%) from baseline to week 52, Subjects on-treatment, Mean ([3]; Sema 0.1 mg once daily s.c.): −9.76% | Change in body weight, Treatment difference (%-points) vs. Lira 3.0 mg [3, 10]: −0.85 %-points | Change in body weight, Treatment difference (%-points) vs. Placebo Pool [3, 10]: −6.32 %-points | Change in body weight (%) from baseline at week 52, Model prediction (Estimate) % ([3]; Sema 0.1 mg): −8.47% | Change in body weight (%) from baseline to week 52, Change (%) Estimate ([3]; Sema 0.2 mg once daily s.c.): −11.60% | Change in body weight (%) from baseline to week 52, Subjects in-trial, Mean ([3]; Sema 0.2 mg once daily s.c.): −12.54% | Change in body weight (%) from baseline to week 52, Subjects on-treatment, Mean ([3]; Sema 0.2 mg once daily s.c.): −13.68% | Change in body weight, Treatment difference (%-points) vs. Lira 3.0 mg [3, 11]: −3.83 %-points | Change in body weight, Treatment difference (%-points) vs. Placebo Pool [3, 11]: −9.31 %-points | Change in body weight (%) from baseline at week 52, Model prediction (Estimate) % ([3]; Sema 0.2 mg): −11.00% | Change in body weight (%) from baseline to week 52, Change (%) Estimate ([3]; Sema 0.3 mg once daily s.c.): −11.17% | Change in body weight (%) from baseline to week 52, Subjects in-trial, Mean ([3]; Sema 0.3 mg once daily s.c.): −12.06% | Change in body weight (%) from baseline to week 52, Subjects on-treatment, Mean ([3]; Sema 0.3 mg once daily s.c.): −12.97% | Change in body weight, Treatment difference (%-points) vs. Lira 3.0 mg [3, 12]: −3.41 %-points | Change in body weight, Treatment difference (%-points) vs. Placebo Pool [3, 12]: −8.88 %-points | Change in body weight (%) from baseline at week 52, Model prediction (Estimate) % ([3]; Sema 0.3 mg): −12.37% | Change in body weight (%) from baseline to week 52, Change (%) Estimate ([3]; Sema 0.4 mg once daily s.c.): −13.84% | Change in body weight (%) from baseline to week 52, Subjects in-trial, Mean ([3]; Sema 0.4 mg once daily s.c.): −13.96% | Change in body weight (%) from baseline to week 52, Subjects on-treatment, Mean ([3]; Sema 0.4 mg once daily s.c.): −16.17% | Change in body weight, Treatment difference (%-points) vs. Lira 3.0 mg [3, 13]: −6.08 %-points | Change in body weight, Treatment difference (%-points) vs. Placebo Pool [3, 13]: −11.55 %-points | Change in body weight (%) from baseline at week 52, Model prediction (Estimate) % ([3]; Sema 0.4 mg): −13.24% | Change in body weight (%) from baseline to week 52, Subjects in-trial, Mean ([3]; Sema 0.5 mg once daily s.c.): −6.33% | Change in body weight (%) from baseline to week 52, Subjects on-treatment, Mean ([3]; Sema 0.5 mg once daily s.c.): −6.79%
